The first assay deals with T1, human PAH with the R408W mutation (A375 R408W cells) (Homo sapiens, UniProt P00439, R408W).
T1 construct: expressed in transfected cells
T1 sequence (P00439 1-452 R408W): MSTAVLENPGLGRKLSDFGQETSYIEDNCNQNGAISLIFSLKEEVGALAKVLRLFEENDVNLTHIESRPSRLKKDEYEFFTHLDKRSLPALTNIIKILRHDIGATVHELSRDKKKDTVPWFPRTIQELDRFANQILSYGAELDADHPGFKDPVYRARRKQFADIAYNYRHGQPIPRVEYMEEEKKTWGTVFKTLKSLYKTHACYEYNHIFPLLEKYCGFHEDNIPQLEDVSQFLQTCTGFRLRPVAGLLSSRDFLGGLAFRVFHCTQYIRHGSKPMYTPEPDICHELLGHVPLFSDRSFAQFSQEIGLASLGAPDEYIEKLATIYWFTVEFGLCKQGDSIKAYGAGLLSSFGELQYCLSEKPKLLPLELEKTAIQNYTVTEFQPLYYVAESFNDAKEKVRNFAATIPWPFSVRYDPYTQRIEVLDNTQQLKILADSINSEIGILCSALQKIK
As to the kind of experiment: Cell Based Phenylalanine Flux Assay. Particulars: A375 R408W cells; 24 hrs with compound, then 20 μM sepiapterin and 800 μM 13C9,15N-Phenylalanine for 4 hours; 13C-Tyrosine by LC-MS; average where tested multiple times. In a few lines:
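Phenylalanine-to-tyrosine flux is measured in A375 cells carrying stable human R408W PAH. After 24 h compound exposure, 13C9,15N-Phe (800 μM) with sepiapterin (20 μM) is supplied for 4 h and media 13C-Tyr is read by LC-MS; AC50s are binned.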
With `O=C(c1nnc(-c2ccccn2)o1)N1CCc2[nH]cnc2[C@H]1c1nc2cc(F)ccc2o1` [Example 39, (S)-(4-(5-fluorobenzo[d]oxazol-2-yl)-6,7-dihydro-1H-imidazo[4,5-c]pyridin-5(4H)-yl)(5-(pyridin-2-yl)-1,3,4-oxadiazol-2-yl)methanone], the AC50 lay within 500 to 1000 nM.
With `Cn1cc(-c2ccc3c(C(=O)N4CCc5[nH]cnc5[C@@H]4c4nc5cc(F)ccc5o4)cnn3c2)cn1` [Example 72, (R)-(4-(5-fluorobenzo[d]oxazol-2-yl)-6,7-dihydro-1H-imidazo[4,5-c]pyridin-5(4H)-yl)(6-(1-methyl-1H-pyrazol-4-yl)pyrazolo[1,5-a]pyridin-3-yl)methanone], the concentration at half-maximal activity (AC50) is at least 5000 nM.
With `Cn1ccc(-c2nnc(C(=O)N3CCc4[nH]cnc4[C@@H]3c3nc4cccc(C(F)(F)F)c4o3)o2)n1` [Example 831, (R)-(5-(1-methyl-1H-pyrazol-3-yl)-1,3,4-oxadiazol-2-yl)(4-(7-(trifluoromethyl)benzo[d]oxazol-2-yl)-6,7-dihydro-1H-imidazo[4,5-c]pyridin-5(4H)-yl)methanone], the half-maximal activity concentration (AC50) lay in the range of 500 to 1000 nM.
Same read-out and setting: the same measure for `CC(C)(O)C1CCN(c2ccc3c(C(=O)N4CCc5[nH]cnc5[C@H]4c4nc5c(F)cccc5o4)cnn3c2)CC1` [Example 507, (S)-(4-(4-fluorobenzo[d]oxazol-2-yl)-6,7-dihydro-1H-imidazo[4,5-c]pyridin-5(4H)-yl)(6-(4-(2-hydroxypropan-2-yl)piperidin-1-yl)pyrazolo[1,5-a]pyridin-3-yl)methanone]: 500 to 1000 nM; for `O=C(c1ocnc1C(F)(F)F)N1CCc2[nH]cnc2[C@H]1c1nc2c(F)cccc2o1` [Example 167, (S)-(4-(4-fluorobenzo[d]oxazol-2-yl)-6,7-dihydro-1H-imidazo[4,5-c]pyridin-5(4H)-yl)(4-(trifluoromethyl)oxazol-5-yl)methanone]: at most 500 nM; for `O=C(c1oc(-c2ccncc2)nc1C(F)F)N1CCc2[nH]cnc2[C@@H]1c1nc2cccc(F)c2o1` [Example 559, (R)-(4-(difluoromethyl)-2-(pyridin-4-yl)oxazol-5-yl)(4-(7-fluorobenzo[d]oxazol-2-yl)-6,7-dihydro-1H-imidazo[4,5-c]pyridin-5(4H)-yl)methanone]: at most 500 nM.
Take `Cc1ncoc1C(=O)N1CCc2[nH]cnc2[C@@H]1c1nc2c(F)cccc2o1` [Example 600, (R)-(4-(4-fluorobenzo[d]oxazol-2-yl)-6,7-dihydro-1H-imidazo[4,5-c]pyridin-5(4H)-yl)(4-methyloxazol-5-yl)methanone]: the AC50 was in the range of 1000 to 5000 nM.
Same read-out and setting: for `O=C(c1nnc(-c2ccccn2)o1)N1CCc2[nH]cnc2[C@@H]1c1nc2cccc(C(F)(F)F)c2o1` [Example 837, (R)-(5-(pyridin-2-yl)-1,3,4-oxadiazol-2-yl)(4-(7-(trifluoromethyl)benzo[d]oxazol-2-yl)-6,7-dihydro-1H-imidazo[4,5-c]pyridin-5(4H)-yl)methanone] the value was 500 to 1000 nM.
Same read-out and setting: the same measure for `Cc1cc(F)c2oc([C@H]3c4nc[nH]c4CCN3C(=O)c3ocnc3C(F)F)nc2c1` [Example 502, (R)-(4-(difluoromethyl)oxazol-5-yl)(4-(7-fluoro-5-methylbenzo[d]oxazol-2-yl)-6,7-dihydro-1H-imidazo[4,5-c]pyridin-5(4H)-yl)methanone]: at most 500 nM; for `O=C(c1cnc(-c2ccccn2)o1)N1CCc2[nH]cnc2[C@H]1c1nc2ccc(Br)cc2o1` [Example 7, (S)-(4-(6-bromobenzo[d]oxazol-2-yl)-6,7-dihydro-1H-imidazo[4,5-c]pyridin-5(4H)-yl)(2-(pyridin-2-yl)oxazol-5-yl)methanone]: 500 to 1000 nM.

The assay is the same for the next values; noted with them: A375 cells expressing R408W PAH; 24 hrs with compound, then 20 μM sepiapterin and 800 μM 13C9,15N-Phenylalanine for 4 hours; 13C-Tyrosine by LC-MS; average where tested multiple times.
`Fc1ccc2oc(C3c4nc[nH]c4CCN3Cc3ocnc3C(F)F)nc2c1` (centres unmarked): the AC50 was at least 5000 nM.
Still for that read-out and setting: the same measure for `CC(C)(O)c1ncc(C(=O)N2CCc3[nH]cnc3C2c2nc3ccc(F)c(F)c3o2)o1` (centres unmarked): 1000 to 5000 nM.
Still for that read-out and setting: the same measure for `O=C(c1cnn(-c2ccccn2)c1Cl)N1CCc2[nH]cnc2C1c1nc2cc(F)ccc2o1` (centres unmarked): 1000 to 5000 nM; for `O=C(c1cnn2cc(N3CCC(O)CC3)ccc12)N1CCc2[nH]cnc2C1c1nc2c(F)cc(F)cc2o1` (centres unmarked): 1000 to 5000 nM.

What is called AC50 is the concentration at which the activity in the assay is half-maximal.
